We go through seven compounds from publication PMC9815544, “Discovery of potent and noncovalent KRAS^G12D inhibitors: Structure-based virtual screening and biological evaluation” (Frontiers in Pharmacology, 2022).

Like-named read-outs stand apart in the source and are kept apart here.

The target of assay [1] is T1, KRAS^G12D (Homo sapiens, UniProt P01116, G12D).
T1 construct: purchased Abcam
As to conditions: known inhibitor, Figure 1, cited from earlier work.

Assay [2] deals with T1, KRAS^G12D. Nature of the assay: Microscale thermophoresis (MST) binding assay. The note with it: room temperature. How it is done:
MST is an effective method to evaluate biomolecular interactions and has been used to study the interactions between binding partners of different molecular sizes ([Wienken et al., 2010]; [Seidel et al., 2013]). According to the previously reported method to measure the interaction between small molecule inhibitors and KRAS^G12D protein, the MST assay was performed using Monolith NT.115 instrument (NanoTemp Technologies, GmbH, Munich, Germany) ([Wienken et al., 2010]). The red fluorescent dye was used for KRAS^G12D fluorescent labeling. Small molecule inhibitors were diluted 1:1 and titrated. The binding buffer (50 mM Tris, 230 mM NaCl) was added to the dilution curve of the small molecule inhibitors and the labeled protein. The final sample was centrifuged at 13,000 rpm for 10 min, and then filled into the capillary tube for MST analysis with 20% LED power and 50% MST power at room temperature. The equilibrium dissociation constant (K d) was calculated using Nano Temper Analysis software.
On the technique in general: In MST a laser heats a spot of the sample, and binding alters the fluorescence response.

Assay [3] concerns Panc 04.03 cells. Briefly: MTT cell proliferation assay. The note with it: Homo sapiens, 72 h treatment. Type of assay: cell-based. How it is done: According to the previously reported method ([Yang et al., 2019]), the human pancreatic cancer cell line (Panc 04.03) was seeded at the density of 2.4 × 10^4 on 96-well plates. After incubation at 37°C with 5% CO2 for 24 h, the cells were incubated with different concentrations of inhibitors under the same conditions. After 72 h, MTT (0.5 mg/ml, 100 μl) was added after the supernatant was discarded. Then keep the 96-well plate at 37°C for 4 h. After that, abandon the medium and inject 200 μl of dimethyl sulfoxide (DMSO) into each well. The spectrophotometric absorbance of the sample at 570 nm was measured using a Synergy 4 Microplate Reader (BioTek Instruments Inc., United States). All of the compounds were tested three times in each of the cells.

Assay [4] concerns Panc 04.03 xenograft tumors. Briefly: In vivo anticancer activity, Panc 04.03 xenograft. Set-up: species or system BALB/c nude mice. The note with it: 3 and 10 mg/kg intraperitoneal every 4 days, five times, 20 days, vs vehicle. The method, then: Based on previously reported protocols for investigating inhibition in vivo ([Zhou et al., 2022]), we injected Panc 04.03 cells (200 μl, 1 × 10^7 cells) in the subdermal space on the right flank of 6-week-old BALB/c nude mice (Changzhou Cavens Laboratory Animal Co., Ltd, China). All experimental protocols were approved by the Animal Ethics Committee of China Pharmaceutical University (Ethic approval number: 2022–11–001). Once tumors grew to 80–100 mm^3, mice were randomly divided into three groups (5 mice per group) and intraperitoneally administered with vehicle, hit compound 3 (3 mg/kg) and hit compound 3 (10 mg/kg) every 4 days for a total of five times. Tumor volume and body weight were measured every 4 days. Tumor volume was calculated using the formula (c × c × d)/2 (c, the smallest diameter; d, the largest diameter).

T1 sequence (P01116 1-188 isoform P01116-2 G12D): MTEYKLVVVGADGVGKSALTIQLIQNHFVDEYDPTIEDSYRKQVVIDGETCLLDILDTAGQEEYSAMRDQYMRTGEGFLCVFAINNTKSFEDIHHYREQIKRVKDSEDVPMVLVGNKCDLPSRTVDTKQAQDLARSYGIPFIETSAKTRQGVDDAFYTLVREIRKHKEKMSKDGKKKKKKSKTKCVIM

What is called IC50 is the point on the concentration scale where inhibition reaches its midpoint. On to `Cn1cnc(Cn2ccc3ccc(CNCc4[nH]c5ccccc5c4[C@H]4NC(=O)c5ccc(O)cc54)cc32)c1` [BI-2852], for which, in assay [1] (ref Kessler et al., 2019), the half-maximal inhibitory concentration (IC50) was 6700 nM.
Broadly, the Kd is the equilibrium constant for the complex coming apart. A lower Kd goes with tighter binding. Regarding `C#Cc1c(F)ccc2cc(O)cc(-c3ncc4c(N5CC6CCC(C5)N6)nc(OCC(C)NC(F)(F)F)nc4c3F)c12` (stereo not shown) [Hit compound 1], the affinity in assay [2], expressed as Kd, was 0.98 ± 0.09 nM. Moreover, the IC50 in assay [3] was determined as 212 nM.
`C#Cc1c(F)ccc2cc(O)cc(-c3ncc4c(N5CC6CCC(C5)N6)nc(OCC5CCCN5CC5CC5)nc4c3F)c12` (stereo not shown) [Hit compound 2] yielded a Kd in assay [2] of 0.46 ± 0.08 nM. For the same compound, the 50% inhibitory concentration (IC50) in assay [3] worked out at 90 nM.
Compound `Oc1cc(-c2ncc3c(N4CC5CCC(C4)N5)nc(OCC4CCCN4CCC4CCCC4)nc3c2F)c2c(Cl)cccc2c1` (stereo not shown) [Hit compound 3] displayed a dissociation constant Kd in assay [2] of 0.13 ± 0.05 nM. For the same compound, the “Tumor growth (tumor volume) of Panc 04.03 xenograft” value in assay [4] is reported as “significantly inhibited”. In assay [3], the IC50 is 43.8 nM.
As for `Oc1cc(-c2ncc3c(N4CC5CCC(C4)N5)nc(OCCNC4CCCCC4)nc3c2F)c2c(Cl)cccc2c1` [Hit compound 4], the dissociation constant Kd in assay [2] came out at 0.76 ± 0.11 nM. For the same compound, the IC50 in assay [3] was determined as 146 nM.
As to `Cc1cccc2cccc(N3CCc4c(nc(OCC5CCCN5C)nc4N4CC5CCC(C4)N5)C3)c12` (stereo not shown) [TH-Z835, reference compound], the concentration for half-maximal inhibition (IC50) in assay [3] was > 300 nM; in assay [1] (ref Mao et al., 2022), 1600 nM.
`NC1(C(=O)NCCCn2cc(-c3ccc(OC(F)(F)F)cc3)c3cc(CN4CCN(Cc5c(Cl)cccc5Cl)CC4)ccc32)CCNCC1` [compound 3144]: the concentration for half-maximal inhibition (IC50) in assay [1] (ref Welsch et al., 2017) is 3800 nM.
